Values joined by “and” are separate entries in the source; they are usually repeats but may differ in a detail not shown here. Identical values can stand only once. Like-named read-outs stand apart in the source and are kept apart here. Each block holds one compound with its values, some of them ahead of it.
Experiments:
Type in all cases: cell-based
[1] = molecular target: T1, wild-type TRPM8 (Mus musculus, UniProt Q8R4D5); assay: whole-cell patch-clamp recording of ligand activation; conditions: WT
T1 construct: expressed in transfected cells; host or cells: HEK293T
T1 sequence (Q8R4D5 whole entry): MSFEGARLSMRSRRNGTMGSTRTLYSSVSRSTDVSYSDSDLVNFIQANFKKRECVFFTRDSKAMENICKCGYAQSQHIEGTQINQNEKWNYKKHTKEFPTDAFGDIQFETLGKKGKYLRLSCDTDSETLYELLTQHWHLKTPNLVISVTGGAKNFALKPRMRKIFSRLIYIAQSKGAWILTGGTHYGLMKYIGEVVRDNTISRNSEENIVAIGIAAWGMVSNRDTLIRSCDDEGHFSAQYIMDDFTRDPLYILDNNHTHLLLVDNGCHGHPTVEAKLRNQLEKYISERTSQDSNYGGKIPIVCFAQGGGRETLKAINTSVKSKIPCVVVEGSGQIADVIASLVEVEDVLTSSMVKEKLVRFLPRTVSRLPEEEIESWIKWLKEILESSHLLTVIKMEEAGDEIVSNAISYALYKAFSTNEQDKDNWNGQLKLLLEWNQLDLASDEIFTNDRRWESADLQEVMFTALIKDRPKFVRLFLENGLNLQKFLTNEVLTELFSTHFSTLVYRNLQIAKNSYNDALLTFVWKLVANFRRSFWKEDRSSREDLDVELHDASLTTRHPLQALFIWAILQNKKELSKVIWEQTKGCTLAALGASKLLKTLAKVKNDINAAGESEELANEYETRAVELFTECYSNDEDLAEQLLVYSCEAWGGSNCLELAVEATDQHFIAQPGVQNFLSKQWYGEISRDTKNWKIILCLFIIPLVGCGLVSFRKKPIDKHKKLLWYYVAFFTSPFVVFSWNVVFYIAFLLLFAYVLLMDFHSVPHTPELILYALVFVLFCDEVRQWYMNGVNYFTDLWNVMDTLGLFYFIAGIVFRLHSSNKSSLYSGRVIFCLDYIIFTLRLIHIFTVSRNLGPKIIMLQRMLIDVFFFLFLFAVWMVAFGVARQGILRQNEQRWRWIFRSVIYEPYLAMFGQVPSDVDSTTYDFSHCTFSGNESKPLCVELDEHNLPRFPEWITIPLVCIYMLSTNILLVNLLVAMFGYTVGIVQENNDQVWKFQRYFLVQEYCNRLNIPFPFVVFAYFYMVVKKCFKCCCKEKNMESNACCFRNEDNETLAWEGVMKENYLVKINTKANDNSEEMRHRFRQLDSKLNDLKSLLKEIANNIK
Description: Murine TRPM8 was used in this study. Point mutations were made by Fast Mutagenesis Kit V2 (SBS Genetech). Primers used to generate point mutations are summarized in Supplementary Table 2.
Cells were transiently transfected with cDNA constructs by Lipofectamine 3000 (Life Technologies) following the manufacturer’s protocol. Patch-clamp recordings were performed 1–2 days after transfection.
(§1) Patch-clamp recordings were performed with a HEKA EPC10 amplifier controlled by PatchMaster software (HEKA). Whole-cell recordings were performed at ±80 mV. Patch pipettes were prepared from borosilicate glass and fire-polished to resistance of ~4 MΩ. For whole-cell recording, serial resistance was compensated by 60%. For single-channel recordings, patch pipettes were fire-polished to a higher resistance of 6-to-10 MΩ and then recorded in the inside-out configuration. To maximize the chance of obtaining a patch with only one channel, single-channel recordings were performed about 8 h after transfection. A solution with 130 mM NaCl, 10 mM glucose, 0.2 mM EDTA, and 3 mM HEPES (pH 7.2) was used in both bath and pipette for either whole-cell or single-channel recordings. Membrane potential was clamped at +80 mV for single-channel recordings. Current was sampled at 10 kHz and filtered at 2.9 kHz. All recordings were performed at room temperature (22 °C) with the maximum variation of 1 °C.
(§2) Ligands such as menthol and its analogs were perfused to membrane patch by a gravity-driven system (RSC-200, Bio-Logic). Bath and ligand solution were delivered through separate tubes to minimize the mixing of solutions. Patch pipette was placed in front of the perfusion tube outlet.
Data from whole-cell recordings were analyzed in Igor Pro version 6.1 (WaveMatrix). EC50 values were derived from fitting a Hill equation to the concentration–response relationship. […] To distinguish these possibilities, dissociation constant (Kd) for ligand binding was estimated assuming the following gating scheme:1 C0↔KdC1↔LO, where L is the equilibrium constant for the final closed-to-open transition.

[2] = molecular target: T2, TRPM8 F839A (Mus musculus, UniProt Q8R4D5, F839A); assay: whole-cell patch-clamp and thermodynamic mutant cycle analysis; conditions: for Omega(X1/X2): menthol vs labelled analog; for Coupling Energy: mutant cycle menthol vs labelled analog
T2 construct: expressed in transfected cells; host or cells: HEK293T
T2 sequence (Q8R4D5 whole entry F839A): as the sequence (Q8R4D5 whole entry) above, with F839A counted along it
Description: (§3) Murine TRPM8 was used in this study. Point mutations were made by Fast Mutagenesis Kit V2 (SBS Genetech). Primers used to generate point mutations are summarized in Supplementary Table 2. All mutations were confirmed by sequencing.
(§4) HEK293T cells purchased from Kunming Cell Bank, Kunming Institute of Zoology, Chinese Academy of Sciences (ATCC, CRL-3216) were cultured in Dulbecco’s modified Eagle’s medium supplemented with 20 mM L-glutamine and 10% fetal bovine serum. Cells were transiently transfected with cDNA constructs by Lipofectamine 3000 (Life Technologies) following the manufacturer’s protocol. Patch-clamp recordings were performed 1–2 days after transfection.
as §1, §2
(§5) Data from whole-cell recordings were analyzed in Igor Pro version 6.1 (WaveMatrix). EC50 values were derived from fitting a Hill equation to the concentration–response relationship. Changes in EC50 by point mutation may be caused by either perturbation of ligand bind or channel gating or both. To distinguish these possibilities, dissociation constant (Kd) for ligand binding was estimated assuming the following gating scheme:1 C0↔KdC1↔LO, where L is the equilibrium constant for the final closed-to-open transition.
(§6) To perform thermodynamic cycle analysis, Kd values of four channel-ligand combinations (WT channel, menthol: Kd _1; Mutant channel, menthol: Kd _2; WT channel, menthol analog: Kd _3; Mutant channel, menthol analog: Kd _4) were determined separately. The strength of coupling was determined by the coupling energy (kT multiplied by LnΩ, where k is the Boltzmann constant and T is temperature in Kelvin). LnΩ was calculated by Eq. (2) as[51]2 LnΩ=LnKd_1⋅Kd_4/Kd_2⋅Kd_3.

[3] = molecular target: T3, TRPM8 I846V (Mus musculus, UniProt Q8R4D5, I846V); assay: as above; conditions: for Omega(X1/X2): menthol vs labelled analog; for Coupling Energy: mutant cycle menthol vs labelled analog
T3 construct: expressed in transfected cells; host or cells: HEK293T
T3 sequence (Q8R4D5 whole entry I846V): as the sequence (Q8R4D5 whole entry) above, with I846V counted along it
Description: as §3, §4, §1, §2, §5, §6

[4] = molecular target: T4, TRPM8 L843A (Mus musculus, UniProt Q8R4D5, L843A); assay: as above; conditions: for Omega(X1/X2): menthol vs labelled analog; for Coupling Energy: mutant cycle menthol vs labelled analog
T4 construct: expressed in transfected cells; host or cells: HEK293T
T4 sequence (Q8R4D5 whole entry L843A): as the sequence (Q8R4D5 whole entry) above, with L843A counted along it
Description: as §3, §4, §1, §2, §5, §6

[5] = molecular target: T5, TRPM8 L843I (Mus musculus, UniProt Q8R4D5, L843I); assay: as above; conditions: for Omega(X1/X2): menthol vs labelled analog; for Coupling Energy: mutant cycle menthol vs labelled analog
T5 construct: expressed in transfected cells; host or cells: HEK293T
T5 sequence (Q8R4D5 whole entry L843I): as the sequence (Q8R4D5 whole entry) above, with L843I counted along it
Description: as §3, §4, §1, §2, §5, §6

[6] = molecular target: T6, TRPM8 L843V (Mus musculus, UniProt Q8R4D5, L843V); assay: as above; conditions: for Omega(X1/X2): menthol vs labelled analog; for Coupling Energy: mutant cycle menthol vs labelled analog
T6 construct: expressed in transfected cells; host or cells: HEK293T
T6 sequence (Q8R4D5 whole entry L843V): as the sequence (Q8R4D5 whole entry) above, with L843V counted along it
Description: as §3, §4, §1, §2, §5, §6

[7] = molecular target: T7, TRPM8 V775A (Mus musculus, UniProt Q8R4D5, V775A); assay: as above; conditions: for Omega(X1/X2): menthol vs labelled analog; for Coupling Energy: mutant cycle menthol vs labelled analog
T7 construct: expressed in transfected cells; host or cells: HEK293T
T7 sequence (Q8R4D5 whole entry V775A): as the sequence (Q8R4D5 whole entry) above, with V775A counted along it
Description: as §3, §4, §1, §2, §5, §6

[8] = molecular target: T8, TRPM8 Y745F (Mus musculus, UniProt Q8R4D5, Y745F); assay: as above; conditions: for Omega(X1/X2): menthol vs labelled analog; for Coupling Energy: mutant cycle menthol vs labelled analog
T8 construct: expressed in transfected cells; host or cells: HEK293T
T8 sequence (Q8R4D5 whole entry Y745F): as the sequence (Q8R4D5 whole entry) above, with Y745F counted along it
Description: as §3, §4, §1, §2, §5, §6

[9] = molecular target: T1, wild-type TRPM8; assay: open probability from noise analysis of macroscopic current and single-channel recordings; conditions: wild-type TRPM8; near saturating concentration (menthol 500 µM)
Description: as §1
From single-channel recordings, the open probability (Po) was calculated after events detection with a hidden Markov approach in the software QuB[49] (http://www.qub.buffalo.edu/). A dead time of 0.32 ms was imposed. As a complementary approach, Po was also estimated from noise analysis[52] of whole-cell recordings. Briefly, the mean current amplitude (I), the squared deviations in current amplitude from the mean value (σ^2), and the single-channel current (i) were measured experimentally from a membrane patch of ion channels. Then the number of ion channels clamped in that patch (N) was determined as3 N=I^2/i⋅I−σ^2.
The maximum current when each of ion channel is at the open state with a Po of 1 is equal to i × N. Then the open probability was calculated as the ratio between the measured macroscopic current and the maximum current calculated by noise analysis. To estimate channel conductance, current amplitude was estimated from all-point histogram of single-channel recordings.

[10] = calculated from concentration–response curves (EC50 and Po max), read-out: Kd, Ave
[11] = calculated from concentration–response curves, read-out: Kd, Ave
[12] = R(kcal/K/mol) 1.99E-03, T 2.97E+02, menthol vs labelled analog

L (equilibrium constant between closed and open states upon ligand binding), Ave [1]: 0.1737
L, single recording [1]: 0.1532 and 0.192 and 0.1757
Ratio X1 (Kd menthol / Kd labelled analog) [1]: 1.53
concentration–response curve value, ave ([1]; 100 microM): 0.03758
concentration–response curve value, single recording ([1]; 100 microM): 0.03758
concentration–response curve value, ave ([1]; 500 microM): 0.06444
concentration–response curve value, single recording ([1]; 500 microM): 0.0748 and 0.0637 and 0.05481
concentration–response curve value, ave ([1]; 1000 microM): 0.104
concentration–response curve value, single recording ([1]; 1000 microM): 0.09939 and 0.1207 and 0.09185
concentration–response curve value, ave ([1]; 5000 microM): 0.1359
concentration–response curve value, single recording ([1]; 5000 microM): 0.1092 and 0.1503 and 0.1483
concentration–response curve value, ave ([1]; 10000 microM): 0.1449
concentration–response curve value, single recording ([1]; 10000 microM): 0.1156 and 0.169 and 0.1502
Kd [1, 10]: 0.631 mM
Kd ([1]; read-out: Kd, single recording): 0.27 mM and 0.723 mM and 0.899 mM
Ratio X2 (Kd menthol / Kd labelled analog) [2]: 0.34
Omega(X1/X2) [2]: 4.45
Coupling Energy [2]: 1.49 kT
L (equilibrium constant between closed and open states upon ligand binding), Ave [3]: 5.486
Ratio X2 (Kd menthol / Kd labelled analog) [3]: 0.0226
concentration–response curve value, ave ([3]; 100 microM): 0.2999
concentration–response curve value, single recording ([3]; 100 microM): 0.4 and 0.341 and 0.2563 and 0.2026
concentration–response curve value, ave ([3]; 500 microM): 0.4287
concentration–response curve value, single recording ([3]; 500 microM): 0.5097 and 0.4021 and 0.4664 and 0.3363
concentration–response curve value, ave ([3]; 5000 microM): 0.6797
concentration–response curve value, single recording ([3]; 5000 microM): 0.6614 and 0.7654 and 0.6405 and 0.6515
concentration–response curve value, ave ([3]; 10000 microM): 0.686
concentration–response curve value, single recording ([3]; 10000 microM): 0.6689 and 0.7334 and 0.6291 and 0.7125
Kd [3, 11]: 5.29 mM
concentration–response curve value, ave ([3]; concentration cell empty): 0.07916
Omega(X1/X2) [3]: 67.65
Coupling Energy [3]: 4.21 kT
Kd ([3]; read-out: Kd, single recording): 4.56 mM and 1.6 mM and 2.66 mM and 12.4 mM
Ratio X2 (Kd menthol / Kd labelled analog) [4]: 10.91
Omega(X1/X2) [4]: 0.14
Coupling Energy [4]: 1.96 kT
Ratio X2 (Kd menthol / Kd labelled analog) [5]: 0.32
Omega(X1/X2) [5]: 4.84
Coupling Energy [5]: 1.58 kT
Ratio X2 (Kd menthol / Kd labelled analog) [6]: 1.21
Omega(X1/X2) [6]: 1.27
Coupling Energy [6]: 0.24 kT
Ratio X2 (Kd menthol / Kd labelled analog) [7]: 3.60
Omega(X1/X2) [7]: 0.43
Coupling Energy [7]: 0.86 kT
Ratio X2 (Kd menthol / Kd labelled analog) [8]: 5.57
Omega(X1/X2) [8]: 0.28
Coupling Energy [8]: 1.29 kT
maximum open probability (Po max) [9]: much reduced
SMILES: CC1CCCC(O)C1 (stereo not shown) [3-methylcyclohexanol]

L (equilibrium constant between closed and open states upon ligand binding), Ave [1]: 2.233
Ratio X1 (Kd menthol / Kd labelled analog) [1]: 0.9034
concentration–response curve value, ave ([1]; 100 microM): 0.06552
concentration–response curve value, ave ([1]; 200 microM): 0.185
concentration–response curve value, ave ([1]; 500 microM): 0.4757
concentration–response curve value, single recording ([1]; 500 microM): 0.4347 and 0.5954 and 0.3968
concentration–response curve value, ave ([1]; 1000 microM): 0.5625
concentration–response curve value, single recording ([1]; 1000 microM): 0.5176 and 0.6462 and 0.5237
concentration–response curve value, ave ([1]; 5000 microM): 0.6452
concentration–response curve value, single recording ([1]; 5000 microM): 0.5498 and 0.7014 and 0.6843
concentration–response curve value, ave ([1]; 10000 microM): 0.6337
concentration–response curve value, single recording ([1]; 10000 microM): 0.5212 and 0.6983 and 0.6816
Kd [1, 10]: 1.05 mM
Kd ([1]; read-out: Kd, single recording): 1.32 mM and 0.824 mM and 0.542 mM and 0.812 mM and 1.46 mM and 0.617 mM and 1.26 mM and 1.59 mM
Ratio X2 (Kd menthol / Kd labelled analog) [2]: 1.37
Energy, Ave [2, 12]: -0.25
Omega(X1/X2) [2]: 0.66
Coupling Energy [2]: 0.42 kT
L (equilibrium constant between closed and open states upon ligand binding), Ave [3]: 41.287
Ratio X2 (Kd menthol / Kd labelled analog) [3]: 0.02928
concentration–response curve value, ave ([3]; 100 microM): 0.5053
concentration–response curve value, single recording ([3]; 100 microM): 0.5194 and 0.5746 and 0.5283 and 0.3989
concentration–response curve value, ave ([3]; 200 microM): 0.8162
concentration–response curve value, single recording ([3]; 200 microM): 0.818 and 0.8632 and 0.783 and 0.8004
concentration–response curve value, ave ([3]; 500 microM): 0.9296
concentration–response curve value, single recording ([3]; 500 microM): 0.9586 and 0.8698 and 0.9387 and 0.9513
concentration–response curve value, ave ([3]; 1000 microM): 0.9432
concentration–response curve value, single recording ([3]; 1000 microM): 0.9846 and 0.8706 and 0.9587 and 0.9591
concentration–response curve value, ave ([3]; 5000 microM): 0.9595
concentration–response curve value, single recording ([3]; 5000 microM): 0.9671 and 0.952
Energy, Ave [3, 12]: 2.02
Kd [3, 11]: 4.09 mM
Omega(X1/X2) [3]: 30.85
Coupling Energy [3]: 3.43 kT
Ratio X2 (Kd menthol / Kd labelled analog) [4]: 34.2166
Energy, Ave [4, 12]: -2.14
Omega(X1/X2) [4]: 0.0264
Coupling Energy [4]: 3.63 kT
Ratio X2 (Kd menthol / Kd labelled analog) [5]: 0.229
Energy, Ave [5, 12]: 0.81
Omega(X1/X2) [5]: 3.95
Coupling Energy [5]: 1.37 kT
Ratio X2 (Kd menthol / Kd labelled analog) [6]: 0.4038
Energy, Ave [6, 12]: 0.48
Omega(X1/X2) [6]: 2.24
Coupling Energy [6]: 0.81 kT
Ratio X2 (Kd menthol / Kd labelled analog) [7]: 2.4876
Energy, Ave [7, 12]: -0.60
Omega(X1/X2) [7]: 0.36
Coupling Energy [7]: 1.01 kT
Ratio X2 (Kd menthol / Kd labelled analog) [8]: 1.55E+00
Energy, Ave [8, 12]: -0.32
Omega(X1/X2) [8]: 0.58
Coupling Energy [8]: 0.54 kT
SMILES: C=C(C)[C@@H]1CC[C@@H](C)C[C@H]1O [isopulegol]

Reference: publication PMC7391767, “Molecular mechanisms underlying menthol binding and activation of TRPM8 ion channel” (Nature Communications, 2020)
